Read-outs that look alike come from different tables or passages of the source.
Assay: Plasma pharmacokinetics (LC-MS/MS)
Type: in vivo, human
Conditions: for AUC(0-inf) / half-life / AUC(0-t) / Cmax / Tmax / concentration at 15 day: human, plasma, oral; for Tmax: read-out: Tmax, Median (Min, max); for concentration at 15 day: read-out: Cmin, Median (Min, max)
Experimental: In the dose escalation part of the study, PK samples were collected at various pre- and post-dose time points on C1D1, D2, D3, D15 and D16. Drug concentrations were assessed using a validated liquid chromatography-tandem mass spectrometry assay.

## CC1(N)CCN(c2cccnc2NC(=O)c2nc(-c3ncccc3C(F)(F)F)cnc2N)CC1 [LXS196]
C1D1 and D15, QD and BID
  Increase in exposure (AUC0–t and Cmax) with dose: under-proportional
C1D15, 100 mg QD, n=2
  Racc (accumulation ratio), Geo-mean: 1.2
  Racc (accumulation ratio), Mean (SD): 1.27 (0.570)
  Racc (accumulation ratio), Median (Min, max): 1.27 (0.867, 1.67)
C1D15, 100 mg QD, n=3
  Cmin, Geo-mean: 137 ng/mL
  Cmin, Mean (SD): 144 (58.0) ng/mL
C1D15, 200 mg BID, n=5
  Cmin, Geo-mean: 705 ng/mL
  Cmin, Mean (SD): 787 (376) ng/mL
  Racc (accumulation ratio), Geo-mean: 0.989
  Racc (accumulation ratio), Mean (SD): 1.11 (0.611)
  Racc (accumulation ratio), Median (Min, max): 0.852 (0.539, 2.00)
C1D15, 200 mg QD, n=2
  Racc (accumulation ratio), Geo-mean: 0.743
  Racc (accumulation ratio), Mean (SD): 0.750 (0.145)
  Racc (accumulation ratio), Median (Min, max): 0.75 (0.647, 0.852)
C1D15, 200 mg QD, n=3
  Cmin, Geo-mean: 134 ng/mL
  Cmin, Mean (SD): 143 (59.2) ng/mL
C1D15, 300 mg BID, n=12
  Racc (accumulation ratio), Geo-mean: 1.09
  Racc (accumulation ratio), Mean (SD): 1.15 (0.403)
  Racc (accumulation ratio), Median (Min, max): 1.07 (0.549, 1.98)
C1D15, 300 mg BID, n=17
  Cmin, Geo-mean: 912 ng/mL
  Cmin, Mean (SD): 1040 (462) ng/mL
  Cmin, Median (Min, max): 1070 (155, 2100) ng/mL
C1D15, 300 mg QD, n=13
  Racc (accumulation ratio), Geo-mean: 0.895
  Racc (accumulation ratio), Mean (SD): 0.934 (0.307)
  Racc (accumulation ratio), Median (Min, max): 0.838 (0.577, 1.72)
C1D15, 300 mg QD, n=14
  Cmin, Geo-mean: 344 ng/mL
  Cmin, Mean (SD): 426 (319) ng/mL
C1D15, 400 mg BID, n=3
  Racc (accumulation ratio), Geo-mean: 0.721
  Racc (accumulation ratio), Mean (SD): 0.738 (0.204)
  Racc (accumulation ratio), Median (Min, max): 0.643 (0.599, 0.972)
C1D15, 400 mg BID, n=4
  Cmin, Geo-mean: 627 ng/mL
  Cmin, Mean (SD): 647 (194) ng/mL
  Cmin, Median (Min, max): 608 (464, 909) ng/mL
C1D15, 500 mg QD, n=8
  Racc (accumulation ratio), Geo-mean: 0.767
  Racc (accumulation ratio), Mean (SD): 0.793 (0.214)
  Racc (accumulation ratio), Median (Min, max): 0.768 (0.484, 1.11)
C1D15, 500 mg QD, n=9
  Cmin, Geo-mean: 622 ng/mL
  Cmin, Mean (SD): 660 (234) ng/mL
C1D15, 1000 mg QD, n=2
  Cmin, Geo-mean: 673 ng/mL
  Cmin, Mean (SD): 674 (10.6) ng/mL
  Racc (accumulation ratio), Geo-mean: 0.709
  Racc (accumulation ratio), Mean (SD): 0.718 (0.161)
  Racc (accumulation ratio), Median (Min, max): 0.718 (0.604, 0.832)
between-patient
  PK variability (CV% for Cmax and AUC0–t): moderate
100 mg, C1D1, 100 mg QD, n=2, read-out: AUCinf, Geo-mean
  AUC(0-inf): 8560 ng·h/mL
100 mg, C1D1, 100 mg QD, n=2, read-out: AUCinf, Mean (SD)
  AUC(0-inf): 8640 ng·h/mL
100 mg, C1D1, 100 mg QD, n=2, read-out: AUCinf, Median (Min, max)
  AUC(0-inf): 8640 ng·h/mL
100 mg, C1D1, 100 mg QD, n=2, read-out: T1/2, Geo-mean (converted)
  half-life: 8.43 h
100 mg, C1D1, 100 mg QD, n=2, read-out: T1/2, Mean (SD) (converted)
  half-life: 8.49 h
100 mg, C1D1, 100 mg QD, n=2, read-out: T1/2, Median (Min, max) (converted)
  half-life: 8.49 h
100 mg, C1D1, 100 mg QD, n=3, read-out: AUC0-t, Geo-mean
  AUC(0-t): 8440 ng·h/mL
100 mg, C1D1, 100 mg QD, n=3, read-out: AUC0-t, Mean (SD)
  AUC(0-t): 8670 ng·h/mL
100 mg, C1D1, 100 mg QD, n=3, read-out: AUC0-t, Median (Min, max)
  AUC(0-t): 8020 ng·h/mL
100 mg, C1D1, 100 mg QD, n=3, read-out: Cmax, Geo-mean
  Cmax: 774 ng/mL
100 mg, C1D1, 100 mg QD, n=3, read-out: Cmax, Mean (SD)
  Cmax: 776 ng/mL
100 mg, C1D1, 100 mg QD, n=3, read-out: Cmax, Median (Min, max)
  Cmax: 811 ng/mL
100 mg, C1D1, 100 mg QD, n=3
  Tmax: 1 h
100 mg, C1D15, 100 mg QD, n=2, read-out: AUC0-t, Geo-mean
  AUC(0-t): 10400 ng·h/mL
100 mg, C1D15, 100 mg QD, n=2, read-out: AUC0-t, Mean (SD)
  AUC(0-t): 10400 ng·h/mL
100 mg, C1D15, 100 mg QD, n=2, read-out: AUC0-t, Median (Min, max)
  AUC(0-t): 10400 ng·h/mL
100 mg, C1D15, 100 mg QD, n=3, read-out: Cmax, Geo-mean
  Cmax: 1180 ng/mL
100 mg, C1D15, 100 mg QD, n=3, read-out: Cmax, Mean (SD)
  Cmax: 1190 ng/mL
100 mg, C1D15, 100 mg QD, n=3, read-out: Cmax, Median (Min, max)
  Cmax: 1260 ng/mL
100 mg, C1D15, 100 mg QD, n=3
  concentration at 15 day: 112 ng/mL
  Tmax: 1 h
200 mg, C1D1, 200 mg BID, n=6, read-out: AUC0-t, Geo-mean
  AUC(0-t): 15400 ng·h/mL
200 mg, C1D1, 200 mg BID, n=6, read-out: AUC0-t, Mean (SD)
  AUC(0-t): 18600 ng·h/mL
200 mg, C1D1, 200 mg BID, n=6, read-out: AUC0-t, Median (Min, max)
  AUC(0-t): 13300 ng·h/mL
200 mg, C1D1, 200 mg BID, n=6, read-out: AUCinf, Geo-mean
  AUC(0-inf): 24000 ng·h/mL
200 mg, C1D1, 200 mg BID, n=6, read-out: AUCinf, Mean (SD)
  AUC(0-inf): 29200 ng·h/mL
200 mg, C1D1, 200 mg BID, n=6, read-out: AUCinf, Median (Min, max)
  AUC(0-inf): 21600 ng·h/mL
200 mg, C1D1, 200 mg BID, n=6, read-out: Cmax, Geo-mean
  Cmax: 3270 ng/mL
200 mg, C1D1, 200 mg BID, n=6, read-out: Cmax, Mean (SD)
  Cmax: 4070 ng/mL
200 mg, C1D1, 200 mg BID, n=6, read-out: Cmax, Median (Min, max)
  Cmax: 2950 ng/mL
200 mg, C1D1, 200 mg BID, n=6, read-out: T1/2, Geo-mean (converted)
  half-life: 13 h
200 mg, C1D1, 200 mg BID, n=6, read-out: T1/2, Mean (SD) (converted)
  half-life: 13.1 h
200 mg, C1D1, 200 mg BID, n=6, read-out: T1/2, Median (Min, max) (converted)
  half-life: 13.1 h
200 mg, C1D1, 200 mg BID, n=6
  Tmax: 0.525 h
200 mg, C1D1, 200 mg QD, n=3, read-out: AUC0-t, Geo-mean
  AUC(0-t): 18700 ng·h/mL
200 mg, C1D1, 200 mg QD, n=3, read-out: AUC0-t, Mean (SD)
  AUC(0-t): 19100 ng·h/mL
200 mg, C1D1, 200 mg QD, n=3, read-out: AUC0-t, Median (Min, max)
  AUC(0-t): 18900 ng·h/mL
200 mg, C1D1, 200 mg QD, n=3, read-out: AUCinf, Geo-mean
  AUC(0-inf): 21300 ng·h/mL
200 mg, C1D1, 200 mg QD, n=3, read-out: AUCinf, Mean (SD)
  AUC(0-inf): 21600 ng·h/mL
200 mg, C1D1, 200 mg QD, n=3, read-out: AUCinf, Median (Min, max)
  AUC(0-inf): 22600 ng·h/mL
200 mg, C1D1, 200 mg QD, n=3, read-out: Cmax, Geo-mean
  Cmax: 3410 ng/mL
200 mg, C1D1, 200 mg QD, n=3, read-out: Cmax, Mean (SD)
  Cmax: 3540 ng/mL
200 mg, C1D1, 200 mg QD, n=3, read-out: Cmax, Median (Min, max)
  Cmax: 2860 ng/mL
200 mg, C1D1, 200 mg QD, n=3, read-out: T1/2, Geo-mean (converted)
  half-life: 8.36 h
200 mg, C1D1, 200 mg QD, n=3, read-out: T1/2, Mean (SD) (converted)
  half-life: 8.52 h
200 mg, C1D1, 200 mg QD, n=3, read-out: T1/2, Median (Min, max) (converted)
  half-life: 8.44 h
200 mg, C1D1, 200 mg QD, n=3
  Tmax: 1 h
200 mg, C1D15, 200 mg BID, n=5, read-out: AUC0-t, Geo-mean
  AUC(0-t): 15400 ng·h/mL
200 mg, C1D15, 200 mg BID, n=5, read-out: AUC0-t, Mean (SD)
  AUC(0-t): 16900 ng·h/mL
200 mg, C1D15, 200 mg BID, n=5, read-out: AUC0-t, Median (Min, max)
  AUC(0-t): 16000 ng·h/mL
200 mg, C1D15, 200 mg BID, n=5, read-out: Cmax, Geo-mean
  Cmax: 2470 ng/mL
200 mg, C1D15, 200 mg BID, n=5, read-out: Cmax, Mean (SD)
  Cmax: 2910 ng/mL
200 mg, C1D15, 200 mg BID, n=5, read-out: Cmax, Median (Min, max)
  Cmax: 2540 ng/mL
200 mg, C1D15, 200 mg BID, n=5
  concentration at 15 day: 883 ng/mL
  Tmax: 1 h
200 mg, C1D15, 200 mg QD, n=3, read-out: AUC0-t, Geo-mean
  AUC(0-t): 12900 ng·h/mL
200 mg, C1D15, 200 mg QD, n=3, read-out: AUC0-t, Mean (SD)
  AUC(0-t): 13200 ng·h/mL
200 mg, C1D15, 200 mg QD, n=3, read-out: AUC0-t, Median (Min, max)
  AUC(0-t): 13800 ng·h/mL
200 mg, C1D15, 200 mg QD, n=3, read-out: Cmax, Geo-mean
  Cmax: 2490 ng/mL
200 mg, C1D15, 200 mg QD, n=3, read-out: Cmax, Mean (SD)
  Cmax: 2500 ng/mL
200 mg, C1D15, 200 mg QD, n=3, read-out: Cmax, Median (Min, max)
  Cmax: 2620 ng/mL
200 mg, C1D15, 200 mg QD, n=3
  concentration at 15 day: 149 ng/mL
  Tmax: 1 h
300 mg, C1D1, 300 mg BID, n=16, read-out: AUCinf, Geo-mean
  AUC(0-inf): 30900 ng·h/mL
300 mg, C1D1, 300 mg BID, n=16, read-out: AUCinf, Mean (SD)
  AUC(0-inf): 35200 ng·h/mL
300 mg, C1D1, 300 mg BID, n=16, read-out: AUCinf, Median (Min, max)
  AUC(0-inf): 28400 ng·h/mL
300 mg, C1D1, 300 mg BID, n=16, read-out: T1/2, Geo-mean (converted)
  half-life: 11.9 h
300 mg, C1D1, 300 mg BID, n=16, read-out: T1/2, Mean (SD) (converted)
  half-life: 12.1 h
300 mg, C1D1, 300 mg BID, n=16, read-out: T1/2, Median (Min, max) (converted)
  half-life: 11.8 h

— paper PMC10006169, “A phase I trial of LXS196, a protein kinase C (PKC) inhibitor, for metastatic uveal melanoma” (British Journal of Cancer, 2023)
